Tested on: α7 integrin promoter
Assay: muscle cell-based assay: α7βgal+/− myoblasts/myotubes, LacZ reporter, β-galactosidase cleavage of FDG
Parameters: species or system mouse; Results in α7+/− β-galactosidase assay: scale not given here
Details: Myoblasts
Summary of the method: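 Fluorescein generated from FDG by β-galactosidase reports α7 integrin promoter activity in differentiated myoblasts from α7+/− LacZ knock-in pups. Screening hits then went to dose-response, western blotting and a myostatin counterscreen.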

Row | SMILES | Results in α7+/− β-galactosidase assay (0.5 uM) | Results in α7+/− β-galactosidase assay (1 uM) | Results in α7+/− β-galactosidase assay (5 uM) | Results in α7+/− β-galactosidase assay (10 uM) | Results in α7+/− β-galactosidase assay (20 uM) | Results in α7+/− β-galactosidase assay (40 uM)
1 | CN1C(=O)/C(=C(/C#N)c2nc3ccccc3[nH]2)c2ccccc21 [drawing 592] | −0.1972 | −0.1961 | −0.2667 | 0.04652 | −0.456 | −0.5499
2 | CC1CC(C)(C)N=C(S)N1CC(=O)N(C)Cc1ccccc1 (stereo not drawn) [drawing 593] | −0.00967 | 0.04937 | 0.1163 | 0.244 | 0.03336 | 0.02068
3 | Cc1noc(C)c1COc1ccc(C(=O)NCCc2ccccn2)cc1 [drawing 594] | −0.1523 | −0.1552 | −0.01736 | 0.1691 | −0.127 | −0.3226
4 | COCCSc1ccccc1C(=O)Nc1cc(C)cc(C)c1 [drawing 595] | −0.06029 | −0.1236 | 0.04359 | 0.2482 | −0.09845 | −0.1003
5 | CC(=O)Nc1ccc(NC(=O)c2cc(=O)c3cc(C)cc(C)c3o2)cc1 [drawing 596] | −0.1173 | −0.07551 | −0.4622 | 0.1321 | −0.5173 | −0.5206
6 | Cc1cccc(Sc2nc(-c3ccccc3)ccc2C#N)c1 [drawing 598] | −0.2243 | −0.2124 | 0.4228 | 0.1696 | −0.08803 | −0.1146
7 | CCC(C)NC(=O)CSc1nnc(COc2ccc(Br)cc2)o1 (stereo not drawn) [drawing 599] | 0.03703 | −0.07 | −0.1163 | 0.4886 | −0.0797 | −0.4672
8 | Cc1ccc(N2C(=O)C3NN=C(C(=O)OCc4ccccc4)C3C2=O)cc1 (stereo not drawn) [drawing 600] | 0.05483 | −0.02931 | −0.09981 | −0.01836 | 0.1359 | −0.03893
9 | Cc1cc([N+](=O)[O-])ccc1NC(=O)C(C)N1CCN(c2ccccn2)CC1 (stereo not drawn) [drawing 601] | 0.08805 | 0.0582 | −0.01841 | −0.03065 | −0.0419 | −0.274
10 | CCc1nc(/C=C2\C(=O)Nc3ccccc32)c[nH]1 [drawing 602] | 0.2737 | 0.07781 | 0.08036 | 0.1565 | 0.1925 | −0.2038
11 | CCOC(=O)C1(Cc2cccc(Cl)c2)CCCN(C(=O)CCSC)C1 (stereo not drawn) [drawing 604] | 0.08932 | −0.00471 | −0.04484 | −0.02503 | −0.06029 | −0.2262

Source: patent US10028992B2, “Methods of treating muscular dystrophy” (BOARD OF REGENTS OF THE NEVADA SYSTEM OF HIGHER EDUCATION …, priority 2012, dated 2018)
